Reference: article PMC7667639, “Optimized Opioid-Neurotensin Multitarget Peptides: From Design to Structure–Activity Relationship Studies” (Journal of Medicinal Chemistry, 2020)
Read-outs that look alike come from different tables or passages of the source. Values belong to the compound of their own block, whether it stands above or below them. Numbered stars: 1 amine (or outer) side, 2 acyl side, 3 side chain; on linkers, the order of the positions; unused ones are H or OH. Square brackets hold non-standard residues; d marks the D form. Peptide text beside a SMILES is read from it. (6-OH)Tic = 6-hydroxy-1,2,3,4-tetrahydroisoquinoline-3-carboxylic acid, O=C([C@@H]1Cc2cc(O[*:3])ccc2CN1[*:1])[*:2]; X1 = O=C1[C@@H](N[*:1])Cc2ccccc2CN1CCC(=O)[*:2]; X2 = O=C([C@@H]1Cc2cc(O)ccc2CN1[*:1])[*:2]; Dmt = Cc1cc(O)cc(C)c1C[C@H](N)C(=O)O; Tle = CC(C)(C)[C@H](N)C(=O)O; β3hK = NCCCC[C@H](N)CC(=O)O

What was measured:
human MOR = molecular target: T1, human MOR (Homo sapiens, UniProt P35372); format: biochemical; conditions: in words
T1 construct: host or cells: CHO (CHO-hMOR)

human KOR = molecular target: T2, human KOR (Homo sapiens, UniProt P41145); assay: [35S]GTPγS binding assay, CHO-hKOR membranes; format: biochemical; conditions: in words
T2 construct: host or cells: CHO (CHO-hKOR)

human DOR = molecular target: T3, human DOR (Homo sapiens, UniProt P41143); assay: [35S]GTPγS binding assay, CHO-hDOR membranes; format: biochemical; conditions: in words
T3 construct: host or cells: CHO (CHO-hDOR)

NTS2 = test system: NTS2; design: method as in PMID 27359371; conditions: in words; cited from earlier work
[1] = cited from earlier work
human NTS2 receptor [2] = molecular target: T4, human NTS2 receptor (Homo sapiens, UniProt O95665); assay: Competitive radioligand binding ([125I]-NT), 1321N1-hNTS2 membranes; conditions: ratio of Ki values NTS1 vs NTS2
T4 construct: host or cells: 1321N1 (human astrocytoma)

human NTS1 [3] = molecular target: T5, human NTS1 (Homo sapiens, UniProt P30989); assay: cell-based; design: expressed in transfected cells; host or cells: HEK293 (transfected with PEI)
human NTS2 receptor [4] = molecular target: T4, human NTS2 receptor; conditions: cited from earlier work; for Ki: human receptor, 1321N1 membranes, read-out: affinity Ki NTS2; for selectivity NTS2/NTS1: ratio of Ki values
human NTS1 [5] = molecular target: T5, human NTS1; design: host or cells: CHO-K1; conditions: CHO membranes, read-out: affinity Ki NTS1; cited from earlier work
[6] = molecular target: human μ-opioid receptor (human) (UniProt P35372); assay: radioligand binding; competition on membranes (15–20 μg) of CHO cells stably expressing hMOR, hDOR or hKOR; radioligands [3H]DAMGO (hMOR), [3H]diprenorphine (hDOR), [3H]U69,593 (hKOR); 50 mM Tris-HCl pH 7.4, 60 min, 25 °C, filtration; Ki by Cheng and Prusoff
[7] = molecular target: human κ-opioid receptor (human) (UniProt P41145); assay: as above
[8] = molecular target: human δ-opioid receptor (human) (UniProt P41143); assay: as above
[9] = molecular target: human neurotensin 1 receptor (human) (UniProt P30989)
[10] = molecular target: human μ-opioid receptor (human) (UniProt P35372)
[11] = molecular target: human κ-opioid receptor (human) (UniProt P41145)
[12] = molecular target: human δ-opioid receptor (human) (UniProt P41143)
[13] = molecular target: human neurotensin 1 receptor (human) (UniProt P30989); assay: radioligand binding; competition with [125I]-NT on membranes (15–20 μg) of CHO cells (hNTS1) or 1321N1 astrocytoma cells (hNTS2); binding buffer 10 mM Tris, 1 mM EDTA pH 7.5, peptides diluted with 50 mM Tris-HCl and 0.2% BSA; 60 min, ambient temperature, filtration; Ki by Cheng and Prusoff
[14] = molecular target: human neurotensin 2 receptor (human) (UniProt O95665); assay: as above

Compound: Cc1cc(O)cc(C)c1C[C@H](N)C(=O)N[C@H](CCCCN)C(=O)N[C@@H](Cc1ccccc1)C(=O)N[C@@H](Cc1ccccc1)C(=O)N[C@@H](CCCCN)C(=O)N[C@@H](CCCCN)C(=O)N1CCC[C@H]1C(=O)N[C@@H](Cc1ccccc1)C(=O)N[C@H](C(=O)N[C@@H](CC(C)C)C(=O)O)C(C)(C)C [PK20] (H-[Dmt][dK]FFKKPF[Tle]L-OH)
functional profile at the MOR (G protein activation) (human MOR): potent full agonist
functional profile at the KOR (human KOR): relatively potent KOR partial agonist
functional profile at the DOR (human DOR): weak partial agonist

Compound: COc1cccc(OC)c1-c1cc(C(=O)NC2(C(=O)O)C3CC4CC(C3)CC2C4)nn1-c1ccnc2cc(Cl)ccc12 (stereo not shown) [SR48692]
activity at NTS2 in the FLIPR assay (NTS2): full agonist activity

Compound: COc1cccc(OC)c1-c1cc(C(=O)NC2(C(=O)O)C3CC4CC(C3)CC2C4)nn1-c1ccc(C(=O)N(C)CCCN(C)C)cc1C(C)C (stereo not shown) [SR142948a]
activity at NTS2 in the FLIPR assay (NTS2): full agonist activity

Compound: Cc1cc(O)cc(C)c1C[C@H](NC(=O)[C@@H]1CCCN1C(=O)[C@H](CCCNC(=N)N)NC(=O)[C@H](CCCNC(=N)N)NC(=O)CCN1Cc2ccccc2C[C@H](NC(=O)[C@@H](CCCNC(=N)N)NC(=O)[C@@H](N)Cc2c(C)cc(O)cc2C)C1=O)C(=O)N[C@H](C(=O)N[C@@H](CC(C)C)C(=O)O)C(C)(C)C [compound 5, H-Dmt-D-Arg-Aba-β-Ala-Arg-Arg-Pro-Dmt-Tle-Leu-OH] (H-[Dmt][dR][X1]RRP[Dmt][Tle]L-OH)
functional profile at the MOR (G protein activation) (human MOR): very potent agonists

Compound: CC(C)C[C@H](NC(=O)[C@@H](NC(=O)[C@@H]1Cc2cc(O)ccc2CN1C(=O)[C@@H]1CCCN1C(=O)[C@H](CCCCN)NC(=O)C[C@@H](N)CCCCN)C(C)(C)C)C(=O)O [peptide 2] (H-[β3hK]KP[X2][Tle]L-OH)
plasma stability t1/2 [1]: > 24 h

Compound: Cc1cc(O)cc(C)c1C[C@H](N)C(=O)N[C@H](CCCNC(=N)N)C(=O)N[C@H]1Cc2ccccc2CN(CCC(=O)N[C@@H](CCCNC(=N)N)C(=O)N[C@@H](CCCNC(=N)N)C(=O)N2CCC[C@H]2C(=O)N[C@@H](Cc2ccc(O)cc2)C(=O)N[C@H](C(=O)N[C@@H](CC(C)C)C(=O)O)C(C)(C)C)C1=O [peptide 3, H-Dmt-D-Arg-Aba-β-Ala-Arg-Arg-Pro-Tyr-Tle-Leu-OH] (H-[Dmt][dR][X1]RRPY[Tle]L-OH)
functional profile at the MOR (G protein activation) (human MOR): very potent agonists

Compound: Cc1cc(O)cc(C)c1C[C@H](N)C(=O)N[C@H](CCCNC(=N)N)C(=O)N[C@H]1Cc2ccccc2CN(CCC(=O)N[C@@H](CCCNC(=N)N)C(=O)N[C@@H](CCCNC(=N)N)C(=O)N2CCC[C@H]2C(=O)N2Cc3ccc(O)cc3C[C@H]2C(=O)N[C@H](C(=O)N[C@@H](CC(C)C)C(=O)O)C(C)(C)C)C1=O [peptide 9, H-Dmt-D-Arg-Aba-β-Ala-Arg-Arg-Pro-(6-OH)Tic-Tle-Leu-OH] (H-[Dmt][dR][X1]RRP[X2][Tle]L-OH)
functional profile at the MOR (G protein activation) (human MOR): very potent agonists
selectivity NTS2/NTS1 (human NTS2 receptor [2]): > 2700
EC50 (human NTS1 [3]): ~2000 nM
fold decrease in NTS1 activity (EC50) compared to NT(8-13) (human NTS1 [3]): 13,000 fold
fold decrease in NTS1 activity (EC50) compared to 1 (human NTS1 [3]; vs 1): ca. 1000 fold

Compound: H-Arg-Arg-Pro-(6-OH)Tic-Tle-Leu-OH (H-RRP[(6-OH)Tic][Tle]L-OH; SMILES CC(C)C[C@H](NC(=O)[C@@H](NC(=O)[C@@H]1Cc2cc(O)ccc2CN1C(=O)[C@@H]1CCCN1C(=O)[C@H](CCCNC(=N)N)NC(=O)[C@@H](N)CCCNC(=N)N)C(C)(C)C)C(=O)O) [compound 15]
Ki (human NTS2 receptor [4]): 132 ± 47 nM
Ki (human NTS1 [5]): 6680 ± 3700 nM

Compound: H-Arg-Arg-Pro-(6-OH)Tic-Tle-Leu-OH [compound 15]
selectivity NTS2/NTS1 (human NTS2 receptor [4]): 50

Compound: H-Arg-Arg-Pro-Dmt-Tle-Leu-OH [compound 14]
Ki (human NTS2 receptor [4]): 3 ± 2 nM
selectivity NTS2/NTS1 (human NTS2 receptor [4]): 4.5
Ki (human NTS1 [5]): 13.4 ± 2 nM

Compound: H-Arg-Arg-Pro-m-Tyr-Tle-Leu-OH [compound 16]
Ki (human NTS2 receptor [4]): 24 ± 18 nM
selectivity NTS2/NTS1 (human NTS2 receptor [4]): 4
Ki (human NTS1 [5]): 93 ± 22 nM

Compound: H-β^3hArg-Arg-Pro-Dmt-Tle-Leu-OH [peptide 13]
Ki (human NTS2 receptor [4]): 0.11 ± 0.07 nM
selectivity NTS2/NTS1 (human NTS2 receptor [4]): 20.1
Ki (human NTS1 [5]): 2.3 ± 0.2 nM

Ki [6]: 4.13 nM
Ki [7]: 33.5 nM
Ki [8]: 46.4 nM
NTS1 Gαq activation (BRET), EC50 [9]: 19.1 nM
NTS1 Gαq activation (BRET), Emax (% of NT(8-13)) [9]: 101%
MOR [^35S]GTPγS binding, EC50 [10]: 13.3 nM
MOR [^35S]GTPγS binding, Emax (% of DAMGO) [10]: 91%
MOR β-arrestin-2 recruitment, EC50 [10]: 956 nM
MOR β-arrestin-2 recruitment, Emax (% of DAMGO) [10]: 69%
KOR [^35S]GTPγS binding, EC50 [11]: 47.1 nM
KOR [^35S]GTPγS binding, Emax (% of U69,593) [11]: 65%
DOR [^35S]GTPγS binding, EC50 [12]: 479 nM
DOR [^35S]GTPγS binding, Emax (% of DPDPE) [12]: 78%
Ki [13]: 188 nM
Ki [14]: 29.5 nM
Compound: PK20 (peptide)
